Data set [1] in a line: Cleanout test (residue in polyethylene bottles, acetonitrile extract, HPLC). The following applies: for Cleanout rating (concentration of thifensulfuron-methyl in the acetonitrile solution): lower rating = more effective cleanout. The format is physicochemical. As for the experimental part:
The test was conducted by dispersing in water a sample to produce a concentration that is normally used when applying the herbicide: 25% thifensulfuron-methyl. The sample was added to tap water (300 mL) in a 400 mL beaker and magnetically stirred for 2 minutes. The mixture was then stirred for 2 minutes, whereupon the resulting dispersion was dispensed in three 100 mL aliquots to 4-oz (118 mL) polyethylene bottles. The bottles were capped, inverted twice and allowed to stand overnight.
After standing overnight, each individual bottle was inverted twice and the liquid contents were then poured out. Tap water (10 mL) was added and the bottle was inverted until all sediment was re-suspended, whereupon the contents were poured out. Tap water (100 mL) was added and the bottle was inverted twice and then allowed to stand undisturbed for 10 minutes. The bottle was inverted twice more and the contents were poured out. Acetonitrile (10 mL) was added to the bottle to extract any remaining material. The acetonitrile solution was analyzed by reversed-phase liquid chromatography with UV detection. The cleanout rating (the concentration of thifensulfuron-methyl herbicide in the acetonitrile solution) is reported in % in Table 6 below.

A short description of data set [2]: Viscosity (stated in words, no method given). The data set is classed as physicochemical.

For `COC(=O)c1sccc1S(=O)(=O)NC(=O)Nc1nc(C)nc(OC)n1` [Amorphous thifensulfuron-methyl, methyl 3-(4-methoxy-6-methyl-1,3,5-triazin-2-ylcarbamoylsulfamoyl)thiophene-2-carboxylate, reference compound], the “Cleanout rating (concentration of thifensulfuron-methyl in the acetonitrile solution)” value stood at 26% in data set [1] (OD formulation), 10% in data set [1] (SG formulation) and 13% in data set [1] (WG formulation). The “Viscosity, in words” value in data set [2] (listed as thifensulfuron-methyl in amorphous state) was “highly viscous”.

Turning to `COC(=O)c1sccc1S(=O)(=O)NC(=O)Nc1nc(C)nc(OC)n1` [Thifensulfuron-methyl, crystalline modification I] [methyl 3-(4-methoxy-6-methyl-1,3,5-triazin-2-ylcarbamoylsulfamoyl)thiophene-2-carboxylate], the “Cleanout rating (concentration of thifensulfuron-methyl in the acetonitrile solution)” value was found to be 5% in data set [1] (OD formulation), 0.1% in data set [1] (SG formulation) and 2% in data set [1] (WG formulation). Moreover, in data set [1] (compared with known amorphous thifensulfuron-methyl product), the “Cleanout properties, in words” value is “markedly superior cleanout properties”. Further, in data set [2] (listed as crystalline modification I of thifensulfuron-methyl), the “Viscosity, in words” value is “significant decrease in its viscosity”.

The values above are taken from patent US9663501B1, “Process for preparing a novel crystalline form of thifensulfuron-methyl and use of the same” (ROTAM AGROCHEM INTERNATIONAL COMPANY LIMITED, priority 2015, dated 2017).
